Test results: US12569470B2, “Vasodilator and use thereof” (Bioradical Research Institute Corp., priority 2019, dated 2026)

Experiments:
[1] = tested on: rat auricular subcutaneous blood vessel; test: Vasodilation in vivo, blood vessel diameter after intravenous administration
Protocol: Eight-week-old or older female rats (Wistar, body weight: approximately 200 g, n=1) were anesthetized by subcutaneous administration of urethane so as to be […] body weight. The hair of the auricles of the rats was then removed and the rats were fixed on a fixing table. After the fixing, the fixing table was placed under a microscope (Nikon OPTIphoto, produced by Nikon Corporation). In addition, a catheter was placed in the groin vein of the rat.
BisEP-C3 was dissolved in a saline solution to achieve a concentration of 3 mg/ml. The resulting saline solution containing BisEP-C3 was administered intravenously via the catheter so as to be 3 mg/kg body weight. Then, the hemodynamic course of the rat auricular subcutaneous blood vessel was photographed and recorded using a microscope at a predetermined period (30, 60, 120 or 180 minutes) before and after the administration.
The obtained images were classified into three blood vessel thicknesses (thick: 35-45 μm, medium: 15-20 μm, thin: 7-9 μm) based on the diameter of the blood vessel before administration. […] Further, for each selected site, the relative blood vessel diameter was calculated after the measurement of the blood vessel diameter, with the blood vessel diameter before administration being a reference (1). […] As a control, the blood vessel diameter was calculated in the same manner except that the saline solution was administered.

[2] = NO-eliminating ability by ESR with NO donor NOC-7 and Carboxy-PTIO
Protocol: It was examined whether the vasodilator of the present invention has NO-eliminating ability. Specifically, as to the NO generation reaction, NOC-7 of NO donor was used to examine whether the NO concentration is reduced in the presence of BisEP-C3. First, 20 μl of a BisEp-C3 solution was added to 140 μl of a phosphate buffer solution (pH 7.4) having a concentration of […] so as to achieve a predetermined concentration (0, 25, 50, 100, 200, 400, or 600 μmol/1), and further 20 μl of a spin-trapping agent (100 μmol/1), Carboxy-PTIO(2-(4-Carboxyphenyl)-4, 4, 5, 5-tetramethylimidazoline-1-oxyl-3-oxide, sodium salt, final concentration 10 μmol/1) solution and 20 μl of a NO donor solution (10 mmol/1NOC-7 (1-Hydroxy-2-oxo-3-(N-methyl-3-aminopropyl)-3-methyl-1-triazene, final concentration […])) were added and mixed. The NO donor solution was prepared using a sodium hydroxide solution having a concentration of 0.1 mmol/1. Then, after the mixing, the mixture was incubated at room temperature for 3 minutes, and the obtained reaction solution was measured under the following ESR measurement conditions 2. Then, the proportion of the decrease in the signal intensity was calculated as the NO-eliminating ability with the signal intensity of the sample with no BisEP-C3 (0 μmol/1) being 100%.
ESR Measurement Conditions 2 […]

[3] = tested on: blood vessel of the mesentery; test: LPS-induced vascular disorder of the mesentery, bleeding and leukocyte rolling; type: in vivo, rat
Excerpt: Eight-week-old or older female rats (Wistar, body weight: approximately 200 g, n=1) were anesthetized by subcutaneous administration of urethane (1.75 g/kg body weight). The rats were then opened and fixed on a fixing table in such a manner that the mesentery of the rats was observable. After the fixing, the fixing table was placed under a microscope (Nikon OPTIphoto, produced by Nikon Corporation) so that the mesentery could be observed. In addition, a catheter was placed in the groin vein of the rat.
1μg/ml of lipopolysaccharide (LPS) (produced by Sigma-Aldrich Co., Ltd.) derived from Pseudomonas aeruginosa (ATCC27316) was added dropwise once (20 μl, 20 ng/sight) and allowed to stand for 30 minutes. Next, a saline solution containing BisEP-C3 prepared in the same manner as in Example 9 was rapidly administered intravenously via the catheter so as to be 1 mg/kg body weight. After the intravenous administration, the saline solution was administered continuously so as to be 1 mg/kg body weight per hour (0.15 ml/hour). […] In the obtained photograph, the area of the region where bleeding occurred (bleeding area) was detected based on the number of pixels, and then the proportion of the area (bleeding area proportion) occupied per visual field was calculated. […]

rat neuroid cells B50 [4] = test: Toxicity evaluation, cell viability by Alamar Blue; type: cell-based; conditions: 12.5, 25, 50, 100, or 200 μmol/1, 24 hours, FIG. 5
Protocol: Rat neuroid cells B50 were seeded in 12-well plates and then cultured. Edaravone (RC), ED2AP, or BisEp-C3 was added to each well so as to achieve a predetermined concentration (12.5, 25, 50, 100, or 200 μmol/1), and then incubated for 24 hours at 37° C. and 5% CO2. Cell viability in each well after the culture was measured using Alamar Blue.

rat neuroid cells B50 [5] = test: Toxicity evaluation on byproducts after reaction with singlet oxygen; type: cell-based; conditions: byproducts after reaction with singlet oxygen, 50, 100, or 200 μmol/1, FIG. 6
Protocol: In a cell-free system, the RB was added to media (5% FCS-containing RPMI-1640 media) containing edaravone, ED2AP, and BisEp-C3 having a predetermined concentration (50, 100, or 200 μmol/1) and then irradiated with LED (G-LED) at 525 nm to generate singlet oxygen, whereby reacting each compound with singlet oxygen. The cell viability was measured in the same manner as in Example 7(1), except that the culture solution after the reaction was used as a medium of the neuroid cell B50. As a negative control (NC), the cell viability was measured in the same manner except that each compound and […] were not added in the cell-free system. Further, as a control (RB), the cell viability was measured in the same manner except that each compound was not added and only […] was added in the cell-free system.

Compound	relative value of the blood vessel diameter ([1]; 3 mg/kg body weight intravenously, 30, 60, 120 or 180 minutes, versus saline control, FIG. 10)	severity of dilatation by blood vessel size ([1]; thick 35-45 μm, medium 15-20 μm, thin 7-9 μm, 3 mg/kg intravenously)	NO-eliminating ability ([2]; 0, 25, 50, 100, 200, 400, or 600 μmol/1, 3 minutes at room temperature, FIG. 14)	superoxide decrease compared with NO-eliminating ability ([2]; equal concentration, comparison with the superoxide test)	bleeding area and bleeding area proportion ([3]; LPS instillation, 1 mg/kg intravenously then 1 mg/kg per hour, up to 180 minutes, FIGS. 12 and 13)	rolling phenomena of leukocytes ([3]; after LPS instillation, compared to the control)	cell viability (cytotoxicity) (rat neuroid cells B50 [4])	cell viability (cytotoxicity of byproducts) (rat neuroid cells B50 [5])
CCN1N=C(C)/C(=C\C=C\c2c(C)nn(CC)c2O)C1=O [BisEp-C3, 2,4-dihydro-4-[3-(1-ethyl-5-hydroxy-3-methyl-1H-pyrazol-4-yl)-2-propen-1-ylidene]-2-ethyl-5-methyl-3H-pyrazol-3-one]	dilated at any time after administration as compared to the control	remarkably observed in the smaller blood vessels	eliminated NO in a concentration-dependent manner	the proportion of the decrease in the production amount of superoxide is larger than the NO-eliminating ability	no bleeding was observed	a large number of rolling phenomena of leukocytes were observed	not cytotoxic at any concentration	not cytotoxic at any concentration
CC1=NN(c2ccccc2)C(=O)/C1=C/C=C/c1c(C)nn(-c2ccccc2)c1O [ED2AP, 2,4-dihydro-4-[3-(5-hydroxy-3-methyl-1-phenyl-1H-pyrazol-4-yl)-2-propen-1-ylidene]-5-methyl-2-phenyl-3H-pyrazol-3-one]	–	–	–	–	–	–	not cytotoxic at any concentration	not cytotoxic at any concentration
